In publication PMC7051184, “C9orf72 arginine-rich dipeptide repeat proteins disrupt karyopherin-mediated nuclear import” (eLife, 2020):
Where a SMILES comes first, the peptide text is derived from it.

Tests used:
Assay type in all cases: biochemical, human
transportin-1 (Tnpo1) = experiment: DPR aggregation assay and western blot, Tnpo1; conditions: for Tnpo1 band density, Pellet / Tnpo1 band density, Supernatant: 100 µM 10mer in 2.5 mg/ml HEK lysate, normalized to untreated HEK; for TNPO1 band density, % untr control: Fig 5-suppl 3C, normalized to untreated HEK on same membrane;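 for TNPO1 band density, % untr control: RNA rows contain added 20 µg total HEK RNA while no-RNA rows lack it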
Procedure: (§1) Supernatant and pellet fractions (for all 5 DPRs, and control/buffer only) were prepared as in the nuclear transport assays, by adding 100 µM 10mers to 2.5 mg/ml HEK lysate in 100 µL TRB. Supernatants were boiled in Laemmli (BioRad) for 5 min. Pellets were boiled for 15 min followed by sonication in order to fully disperse aggregates for SDS-PAGE. Equal volumes of supernatant and pellet fractions were run on 4–12% Bolt Bis-Tris Plus gels (ThermoFisher), transferred to nitrocellulose membrane using an iBlot2 dry blotting system (ThermoFisher). Protein loading was analyzed by BLOT-Faststain (G-biosciences, St. Louis, MO), according to the manufacterers’ instructions. For immunodetection, membranes were blocked with 5% non-fat milk in TBST and probed by sequential incubation with the primary antibodies as detailed in the table below. Detection was by HRP-conjugated secondary antibodies/chemiluminescence using an ImageQuant LAS 4000 system (GE, Chicago, IL). To permit sequential probing of membranes without stripping, signals were quenched by incubation with prewarmed 30% H20_2 for 20 min ([Sennepin et al., 2009]). Band intensities were measured by ImageQuant software. For pellet vs. supernatant fractions, all were expressed as percent untreated control. For blots in Figure 1E, samples were run on 4–20% SDS PAGE minigels (ThermoFisher) and blotted to PVDF membranes (Immun-Blot PVDF, Bio-Rad) using the Bio-Rad TransBlot Turbo apparatus, and probed as above. The chemiluminescence signal was captured with a Bio-Rad ChemiDoc XRS+ digital imaging system.

hnRNPA1 = experiment: DPR aggregation assay and western blot, hnRNPA1; conditions: normalized to untreated HEK cells on the same membrane
Procedure: as §1

Rps25 = experiment: DPR aggregation assay and western blot, Rps25; conditions: Fig 5-suppl 3C, normalized to untreated HEK on same membrane;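 note: RNA rows contain added 20 µg total HEK RNA while no-RNA rows lack it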
From the text: Supplement elife-51685-fig5-data1.xlsx, sheet "Figure 5-figure suppl 3" | column: Rps25

hnRNPA2/B1 = experiment: DPR aggregation assay and western blot, hnRNPA2/B1; conditions: normalized to untreated HEK cells on the same membrane
Procedure: as §1

Nup133 = experiment: DPR aggregation assay and western blot, Nup133; conditions: 100 µM 10mer in 2.5 mg/ml HEK lysate, normalized to untreated HEK
Procedure: as §1

RanGAP1 = experiment: DPR aggregation assay and western blot, RanGAP1; conditions: for RanGAP1 band density, Pellet / RanGAP1 band density, Supernatant: 100 µM 10mer in 2.5 mg/ml HEK lysate, normalized to untreated HEK; for RanGAP1 band density, % untr control: Fig 5-suppl 3C, normalized to untreated HEK on same membrane
Procedure: as §1

importin α = experiment: DPR aggregation assay and western blot, ImpA; conditions: for ImpA band density, Pellet / ImpA band density, Supernatant: 100 µM 10mer in 2.5 mg/ml HEK lysate, normalized to untreated HEK; for ImpA band density, % untr control: Fig 5-suppl 3C, normalized to untreated HEK on same membrane;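 for ImpA band density, % untr control: RNA rows contain added 20 µg total HEK RNA while no-RNA rows lack it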
Procedure: as §1

Ran = experiment: DPR aggregation assay and western blot, Ran; conditions: for Ran band density, Pellet / Ran band density, Supernatant: 100 µM 10mer in 2.5 mg/ml HEK lysate, normalized to untreated HEK; for Ran band density, % untr control: Fig 5-suppl 3C, normalized to untreated HEK on same membrane;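 for Ran band density, % untr control: RNA rows contain added 20 µg total HEK RNA while no-RNA rows lack it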
Procedure: as §1

RPS6 = experiment: DPR aggregation assay and western blot, RPS6; conditions: for Rps6 band density, % untr control: Fig 5-suppl 3C, normalized to untreated HEK on same membrane; for RPS6 band density, % control: normalized to untreated HEK cells on the same membrane
Procedure: as §1

[1] = Pellet, no RNA (Untreated), blot 1
[2] = Pellet, no RNA (Untreated), blot 2
[3] = Supernatant, no RNA (Untreated), blot 1
[4] = Supernatant, no RNA (Untreated), blot 2

N=C(N)NCCC[C@H](NC(=O)[C@@H]1CCCN1C(=O)[C@H](CCCNC(=N)N)NC(=O)[C@@H]1CCCN1C(=O)[C@H](CCCNC(=N)N)NC(=O)[C@@H]1CCCN1C(=O)[C@H](CCCNC(=N)N)NC(=O)[C@@H]1CCCN1C(=O)[C@H](CCCNC(=N)N)NC(=O)[C@@H]1CCCN1C(=O)[C@H](CCCNC(=N)N)NC(=O)[C@@H]1CCCN1C(=O)[C@H](CCCNC(=N)N)NC(=O)[C@@H]1CCCN1C(=O)[C@H](CCCNC(=N)N)NC(=O)[C@@H]1CCCN1C(=O)[C@H](CCCNC(=N)N)NC(=O)[C@@H]1CCCN1C(=O)[C@H](CCCNC(=N)N)NC(=O)[C@@H]1CCCN1)C(=O)O [PR10] (H-PRPRPRPRPRPRPRPRPRPR-OH; N-terminus and C-terminus assumed)
Tnpo1 band density, Pellet (transportin-1 (Tnpo1); Blot 1): 258.1 % control | Tnpo1 band density, Supernatant (transportin-1 (Tnpo1); Blot 1): 76.9 % control | Tnpo1 band density, Pellet (transportin-1 (Tnpo1); Blot 2): 476.3 % control | Tnpo1 band density, Supernatant (transportin-1 (Tnpo1); Blot 2): 65.0 % control | TNPO1 band density, % untr control (transportin-1 (Tnpo1); Pellet, RNA, blot 1): 162.49% | TNPO1 band density, % untr control (transportin-1 (Tnpo1); Pellet, RNA, blot 2): 169.58% | TNPO1 band density, % untr control (transportin-1 (Tnpo1); [1]): 284.53% | TNPO1 band density, % untr control (transportin-1 (Tnpo1); [2]): 326.13% | TNPO1 band density, % untr control (transportin-1 (Tnpo1); Supernatant, RNA, blot 1): 75.09% | TNPO1 band density, % untr control (transportin-1 (Tnpo1); Supernatant, RNA, blot 2): 93.47% | TNPO1 band density, % untr control (transportin-1 (Tnpo1); [3]): 65.77% | TNPO1 band density, % untr control (transportin-1 (Tnpo1); [4]): 83.87% | hnRNPA1 band density, % control (hnRNPA1; Pellet, Blot 1): 165.2 % control | hnRNPA1 band density, % control (hnRNPA1; Pellet, Blot 2): 367.1 % control | hnRNPA1 band density, % control (hnRNPA1; Supernatant, Blot 1): 61.7 % control | hnRNPA1 band density, % control (hnRNPA1; Supernatant, Blot 2): 58.6 % control | Rps25 band density, % untr control (Rps25; Pellet, RNA, blot 1): 302.37% | Rps25 band density, % untr control (Rps25; Pellet, RNA, blot 2): 467.96% | Rps25 band density, % untr control (Rps25; [1]): 306.71% | Rps25 band density, % untr control (Rps25; [2]): 525.42% | Rps25 band density, % untr control (Rps25; Supernatant, RNA, blot 1): 12.19% | Rps25 band density, % untr control (Rps25; Supernatant, RNA, blot 2): 16.30% | Rps25 band density, % untr control (Rps25; [3]): 0.89% | Rps25 band density, % untr control (Rps25; [4]): 1.06% | hnRNPA2/B1 band density, % control (hnRNPA2/B1; Pellet, Blot 1): 426.4 % control | hnRNPA2/B1 band density, % control (hnRNPA2/B1; Pellet, Blot 2): 309.1 % control | hnRNPA2/B1 band density, % control (hnRNPA2/B1; Supernatant, Blot 1): 53.5 % control | hnRNPA2/B1 band density, % control (hnRNPA2/B1; Supernatant, Blot 2): 56.7 % control | Nup133 band density, Pellet (Nup133; Blot 1): 156.5 % control | Nup133 band density, Supernatant (Nup133; Blot 1): 45.6 % control | Nup133 band density, Pellet (Nup133; Blot 2): 194.3 % control | Nup133 band density, Supernatant (Nup133; Blot 2): 40.2 % control | RanGAP1 band density, Pellet (RanGAP1; Blot 1): 413.6 % control | RanGAP1 band density, Supernatant (RanGAP1; Blot 1): 76.6 % control | RanGAP1 band density, Pellet (RanGAP1; Blot 2): 481.7 % control | RanGAP1 band density, Supernatant (RanGAP1; Blot 2): 84.2 % control | RanGAP1 band density, % untr control (RanGAP1; Pellet, RNA, blot 1): 309.83% | RanGAP1 band density, % untr control (RanGAP1; Pellet, RNA, blot 2): 267.45% | RanGAP1 band density, % untr control (RanGAP1; [1]): 288.68% | RanGAP1 band density, % untr control (RanGAP1; [2]): 278.19% | RanGAP1 band density, % untr control (RanGAP1; Supernatant, RNA, blot 1): 115.69% | RanGAP1 band density, % untr control (RanGAP1; Supernatant, RNA, blot 2): 95.48% | RanGAP1 band density, % untr control (RanGAP1; [3]): 62.58% | RanGAP1 band density, % untr control (RanGAP1; [4]): 76.25% | ImpA band density, Pellet (importin α; Blot 1): 170.0 % control | ImpA band density, Supernatant (importin α; Blot 1): 78.1 % control | ImpA band density, Pellet (importin α; Blot 2): 198.7 % control | ImpA band density, Supernatant (importin α; Blot 2): 90.0 % control | ImpA band density, % untr control (importin α; Pellet, RNA, blot 1): 171.92% | ImpA band density, % untr control (importin α; Pellet, RNA, blot 2): 154.07% | ImpA band density, % untr control (importin α; [1]): 177.99% | ImpA band density, % untr control (importin α; [2]): 181.79% | ImpA band density, % untr control (importin α; Supernatant, RNA, blot 1): 85.78% | ImpA band density, % untr control (importin α; Supernatant, RNA, blot 2): 111.13% | ImpA band density, % untr control (importin α; [3]): 79.74% | ImpA band density, % untr control (importin α; [4]): 105.29% | Ran band density, Pellet (Ran; Blot 1): 101.8 % control | Ran band density, Supernatant (Ran; Blot 1): 104.7 % control | Ran band density, Pellet (Ran; Blot 2): 132.9 % control | Ran band density, Supernatant (Ran; Blot 2): 105.7 % control | Ran band density, % untr control (Ran; Pellet, RNA, blot 1): 201.97% | Ran band density, % untr control (Ran; Pellet, RNA, blot 2): 271.01% | Ran band density, % untr control (Ran; [1]): 172.26% | Ran band density, % untr control (Ran; [2]): 224.02% | Ran band density, % untr control (Ran; Supernatant, RNA, blot 1): 114.46% | Ran band density, % untr control (Ran; Supernatant, RNA, blot 2): 110.30% | Ran band density, % untr control (Ran; [3]): 105.51% | Ran band density, % untr control (Ran; [4]): 113.60% | Rps6 band density, % untr control (RPS6; Pellet, RNA, blot 1): 396.86% | Rps6 band density, % untr control (RPS6; Pellet, RNA, blot 2): 295.15% | Rps6 band density, % untr control (RPS6; [1]): 455.82% | Rps6 band density, % untr control (RPS6; [2]): 297.04% | Rps6 band density, % untr control (RPS6; Supernatant, RNA, blot 1): 8.34% | Rps6 band density, % untr control (RPS6; Supernatant, RNA, blot 2): 9.83% | Rps6 band density, % untr control (RPS6; [3]): 2.35% | Rps6 band density, % untr control (RPS6; [4]): 1.09% | RPS6 band density, % control (RPS6; Pellet, Blot 1): 219.0 % control | RPS6 band density, % control (RPS6; Pellet, Blot 2): 275.0 % control | RPS6 band density, % control (RPS6; Supernatant, Blot 1): 3.7 % control | RPS6 band density, % control (RPS6; Supernatant, Blot 2): 6.4 % control
